Source: patent US11524943B1 (Vivace Therapeutics, Inc., priority 2017, dated 2022)

Tested on: HEK293T cells stably transfected with 8×TBD luciferase reporter and pRLTK
Test: YAP Reporter Assay (8×TBD firefly luciferase reporter)
Type: cell-based
Settings: Homo sapiens, HEK-293T; HEK293T 8×TBD reporter cells, 24-hr incubation, top concentration 3 μM, 1:3 dilution, 10 points
Procedure: HEK293T cells stably transfected with 8×TBD luciferase reporter and pRLTK in 384-well plates were treated with the test compounds, starting from 3 μM (final concentration in assay plate), 1:3 dilution, and 10 points in quadruplicates. Post 24-hr incubation with compounds at 37° C. and 5% CO2, cells were lysed and 8×TBD-driven firefly luciferase and control TK-driven renilla luciferase activities were measured using Promega Dual-Luciferase Reporter Assay System.
Reagents: The reagents used for this study are: DMEM: Invitrogen #11960077, Dual-Glo Luciferase Assay System: Promega-E2980, Puromycin Dihydrochloride: Invitrogen-A1113803, 384-well plate: PerkinElmer-6007480, L-GLUTAMINE: Invitrogen-25030164, Hygromycin B: Invitrogen-10687010, and Penicillin-Streptomycin: Merk-TMS-AB2-C
Media: The media used for this assay were: Culture Medium: DMEM+1 ug/mL puromycin+200 ug/mL hygromycin (with 10% FBS+1 mM L-glutamine); and Assay Medium: DMEM (with 10% FBS+1 mM L-glutamine+1×P/S).
Cell Plating: The appropriate media was warmed at 37° C. by water bath: Culture Medium, Assay Medium, 1*D-PBS, 0.05% trypsin-EDTA. The cells were trypsinized after removing all media, then washed with 1* sterile D-PBS and then with 2 ml 0.05% trypsin-EDTA. The cells were then incubated at RT for one minute. Then 10 ml/75 cm2 flask Assay Medium was added to each flask. Using a 10 ml pipette, the cells were then gently resuspended in the media, until the clumps completely disappeared. The cells were then transferred into 50 ml centrifuge tubes and were centrifuged at 800 rpm for 5 mins. The medium was removed and the cells were resuspended with Assay Medium. An aliquot of cells was used to count the cell density (cells/ml). The cell suspension was then diluted with Assay Medium to a concentration of 6×10^4 cells/ml. 50 ul cells suspension was then plated to 384-well plate (PerkinElmer-6007480), 3×10^3 cells/well and the cells were incubated in an incubator at 37° C., 5% CO2.
Compound Treatment: In the afternoon (incubation of the plate with 3-4 hrs), the test compounds were added by Echo, starting from 3 uM (final concentration in the assay plate), 1:3 dilution, 10 points, quadruplicates. The plate was placed at 37° C., 5% CO2 incubator for 24 hrs.
Detection: The Dual-Glo Luciferase Reagent was prepared by transferring the contents of one bottle of Dual-Glo Luciferase Buffer to one bottle of Dual-Glo Luciferase Substrate to create the Dual-Glo Luciferase Reagent. Mixing was performed by inversion until the substrate was thoroughly dissolved. After mixing, the reagent was aliquoted into 15 ml tubes. In the afternoon (24 hrs post compound treatment), the DMEM+ medium in the 384 well plates were aspirated by Microplate Washer.
Measuring firefly luciferase activity: 20 ul Dual-Glo Luciferase Reagent was added to the 384-well plates. The plates were protected from light to prevent interference with the assay. The plates were shaken for 1 min followed centrifuging plates at 1000 rpm for 30 seconds. After waiting at least 10 minutes, the firefly luminescence was measured by Envision.
Measuring renilla luciferase activity: 20 ul Stop-Glo Reagent was added to the 384-well plates. The plates were shaken for 1 min and then centrifuged at 1000 rpm for 30 seconds. After waiting at least 10 minutes, the renilla luminescence was measured by Envision.
Compound IC50 and maximum inhibition on the firefly luciferase and renilla luciferase activities were reported separately.

O=C(O)c1ccc(Nc2ccc(C(F)(F)F)cc2)c(-c2cc(Cl)ccn2)c1 [Compound 55, 3-(4-chloro-2-pyridyl)-4-[4-(trifluoromethyl)anilino] benzoic acid]
IC50: ≤ 100 nM

COC(=O)c1ccc(Nc2ccc(C(F)(F)F)cc2)c(-c2cc(N)ncn2)c1 [Compound 56, methyl 3-(6-aminopyrimidin-4-yl)-4-[4-(trifluoromethyl)anilino] benzoate]
IC50: ≤ 100 nM

O=C(O)c1ccc(Nc2ccc(C(F)(F)F)cc2)c(-c2cocn2)c1 [Compound 57, 3-(oxazol-4-yl)-4-((4-(trifluoromethyl)phenyl)amino) benzoic acid]
IC50: ≤ 100 nM

O=C(O)c1ccc(Nc2ccc(C(F)(F)F)cc2)c(-c2nnc(C(F)(F)F)s2)c1 [Compound 58, 4-[4-(trifluoromethyl)anilino]-3-[5-(trifluoromethyl)-1,3,4-thiadiazol-2-yl]benzoic acid]
IC50: ≤ 100 nM

O=C(O)c1ccc(Nc2ccc(C(F)(F)F)cc2)c(-c2nnc(C3CC3)s2)c1 [Compound 59, 3-(5-cyclopropyl-1,3,4-thiadiazol-2-yl)-4-((4-(trifluoromethyl)phenyl)amino) benzoic acid]
IC50: ≤ 100 nM

O=C(O)c1ccc(Nc2ccc(C(F)(F)F)cc2)c(-c2ccncn2)c1 [Compound 60, 3-pyrimidin-4-yl-4-[4-(trifluoromethyl)anilino] benzoic acid]
IC50: 100 to 1000 nM

O=C(O)c1ccc(Nc2ccc(C(F)(F)F)cc2)c(-c2ncco2)c1 [Compound 61, 3-(oxazol-2-yl)-4-((4-(trifluoromethyl)phenyl)amino) benzoic acid]
IC50: ≤ 100 nM

Cn1nnc(-c2cc(C(=O)NCCOCCOCCOCCOCCNC(=O)OC(C)(C)C)ccc2Nc2ccc(C(F)(F)F)cc2)n1 [Compound 63, tert-butyl (1-(3-(2-methyl-2H-tetrazol-5-yl)-4-((4-(trifluoromethyl)phenyl)amino)phenyl)-1-oxo-5,8,11,14-tetraoxa-2-azahexadecan-16-yl)carbamate]
IC50: 100 to 1000 nM

COCC(=O)NCCOCCOCCNC(=O)c1ccc(Nc2ccc(C(F)(F)F)cc2)c(-c2nnn(C)n2)c1 [Compound 64, 3-(2-methyl-2H-tetrazol-5-yl)-N-(4-oxo-2,8,11-trioxa-5-azatridecan-13-yl)-4-((4-(trifluoromethyl)phenyl)amino) benzamide]
IC50: 100 to 1000 nM

COCCC(=O)NCCOCCOCCNC(=O)c1ccc(Nc2ccc(C(F)(F)F)cc2)c(-c2nnn(C)n2)c1 [Compound 65, 3-(2-methyl-2H-tetrazol-5-yl)-N-(5-oxo-2,9,12-trioxa-6-azatetradecan-14-yl)-4-((4-(trifluoromethyl)phenyl)amino) benzamide]
IC50: 100 to 1000 nM
